Assay results taken from patent EP3262942A1, “SELENODIARYLS FOR USE AS MICROBICIDE OR AS MEDICINE” (Evonik Degussa GmbH, priority 2016, dated 2018).

Assays:
[1] = system: Paecilomyces variotii; experiment: Growth test in microtiter plates, HA medium, 24 h, visual evaluation; assay type: cell-based; design: key: +: kein Wachstum im Vergleich zur Wachstumskontrolle; -: Wachstum wie Wachstumskontrolle
[2] = system: Botrytis cinerea; experiment: microbe, parasite or virus in culture; assay type: cell-based
[3] = system: Candida albicans; experiment: Growth test in microtiter plates, HA medium, 24 h, visual evaluation; assay type: cell-based; design: key: +: kein Wachstum im Vergleich zur Wachstumskontrolle; -: Wachstum wie Wachstumskontrolle
[4] = system: Mucor miehei; experiment: as above; assay type: cell-based; design: key to Aktivität gegenüber M. miehei: +: kein Wachstum im Vergleich zur Wachstumskontrolle; -: Wachstum wie Wachstumskontrolle
[5] = system: P. infestans; experiment: microbe, parasite or virus in culture; assay type: cell-based, Phytophthora infestans
[6] = system: Penicillium notatum; experiment: Growth test in microtiter plates, HA medium, 24 h, visual evaluation; assay type: cell-based; design: key: +: kein Wachstum im Vergleich zur Wachstumskontrolle; -: Wachstum wie Wachstumskontrolle
[7] = system: alle getesteten Pathogene; assay type: cell-based; details: 5-50 µg/mL
[8] = system: Setaria italica; experiment: Crop plant growth test, seeds on filter discs, 4 days, visual evaluation; assay type: in vivo
Procedure: (§1) Testsubstanzen und Kontrollen werden auf Filterrondellen in Mikrotiterplatten (48 well) vorgelegt und das verwendete Lösungsmittel (DMSO) über Lyophilisation entfernt. Anschließend werden ca. 12 Samen pro Vertiefung (Setaria italical Lepidium sativum) zugeben, mit 200 µl sterilem Leitungswasser pro Vertiefung versetzt, mit einem Deckel versehen und in einer feuchten Kammer für 4 Tage im Pflanzenbrutschrank inkubiert (16h-Licht-8h-Dunkel-Rhythmus). Die Auswertung des Tests erfolgt optisch (+: mind. 75 % Wachstumshemmung im Vergleich zur Kontrolle, -: weniger als 75 % Wachstumshemmung im Vergleich zur Kontrolle.

[9] = system: Lepidium sativum; experiment: as above; assay type: in vivo
Procedure: as §1

[10] = system: M. grisea CM; experiment: microbe, parasite or virus in culture; assay type: cell-based, Magnaporthe grisea
[11] = system: M. grisea H2O; experiment: microbe, parasite or virus in culture; assay type: cell-based, Magnaporthe grisea
[12] = Phytophthora infestans, 24 h, read-out: Aktivität gegenüber P. infestans
[13] = Pyricularia grisea, 24 h, read-out: Aktivität gegenüber M. grisea CM
[14] = Pyricularia grisea, H2O, 24 h, read-out: Aktivität gegenüber M. grisea H2O

SMILES | Aktivität gegenüber P. variotii ([1]; 10µg/mL) | Aktivität gegenüber P. variotii ([1]; 50µg/mL) | Aktivität gegenüber C. albicans ([3]; 10µg/mL) | Aktivität gegenüber C. albicans ([3]; 50µg/mL) | Aktivität gegenüber M. miehei ([4]; 10µg/mL) | Aktivität gegenüber M. miehei ([4]; 50µg/mL) | Aktivität gegenüber P. notatum ([6]; 10µg/mL) | Aktivität gegenüber P. notatum ([6]; 50µg/mL) | Aktivität gegenüber Nutzpflanzen: S. italica ([8]; 10µg/R) | Aktivität gegenüber Nutzpflanzen: S. italica ([8]; 20µg/R) | Aktivität gegenüber Nutzpflanzen: S. italica ([8]; 50µg/R) | Aktivität gegenüber Nutzpflanzen: L. sativum ([9]; 10µg/R) | Aktivität gegenüber Nutzpflanzen: L. sativum ([9]; 20µg/R) | Aktivität gegenüber Nutzpflanzen: L. sativum ([9]; 50µg/R) | Aktivität gegenüber B. cinerea ([2]; 5µg/mL) | Aktivität gegenüber B. cinerea ([2]; 10µg/mL) | Aktivität gegenüber B. cinerea ([2]; 25µg/mL) | Aktivität gegenüber B. cinerea ([2]; 50µg/mL) | Aktivität gegenüber P. infestans ([5]; 5µg/mL) | Aktivität gegenüber P. infestans ([5]; 10µg/mL) | also measured
CC(C)(C)c1cc([Se]c2cc(C(C)(C)C)cc(C(C)(C)C)c2O)c(O)c(C(C)(C)C)c1 [Verbindung 14, Bis(3,5-di-tert-butyl-2-hydroxyphenyl)selen] | - | - | - | - | - | - | - | - | - (weniger als 75 % Wachstumshemmung im Vergleich zur Kontrolle) | - (weniger als 75 % Wachstumshemmung im Vergleich zur Kontrolle) | - (weniger als 75 % Wachstumshemmung im Vergleich zur Kontrolle) | - (weniger als 75 % Wachstumshemmung im Vergleich zur Kontrolle) | - (weniger als 75 % Wachstumshemmung im Vergleich zur Kontrolle) | - (weniger als 75 % Wachstumshemmung im Vergleich zur Kontrolle) |  |  |  |  |  |  | inhibition of growth at 5 µg/mL ([2]; Botrytis cinerea, 24 h, 5µg/mL, read-out: Aktivität gegenüber B. cinerea): 0 to 25%; inhibition of growth at 10 µg/mL ([2]; Botrytis cinerea, 24 h, 10µg/mL, read-out: Aktivität gegenüber B. cinerea): 0 to 25%; inhibition of growth at 25 µg/mL ([2]; Botrytis cinerea, 24 h, 25µg/mL, read-out: Aktivität gegenüber B. cinerea): 0 to 25%; inhibition of growth at 50 µg/mL ([2]; Botrytis cinerea, 24 h, 50µg/mL, read-out: Aktivität gegenüber B. cinerea): 0 to 25%; inhibition of growth at 5 µg/mL [5, 12]: 0 to 25%; inhibition of growth at 10 µg/mL [5, 12]: 0 to 25%; inhibition of growth at 25 µg/mL [5, 12]: 0 to 25%; inhibition of growth at 50 µg/mL [5, 12]: 0 to 25%; Aktivität im Wachstums- und Keimungshemmungstest gegen die getesteten Pathogene [7]: weder im Wachstums- noch im Keimungshemmungstest im verwendeten Konzentrationsbereich eine entsprechende Aktivität; inhibition of growth at 5 µg/mL [10, 13]: 0 to 25%; inhibition of growth at 10 µg/mL [10, 13]: 0 to 25%; inhibition of growth at 25 µg/mL [10, 13]: 0 to 25%; inhibition of growth at 50 µg/mL [10, 13]: 0 to 25%; inhibition of growth at 5 µg/mL [11, 14]: 0 to 25%; inhibition of growth at 10 µg/mL [11, 14]: 0 to 25%; inhibition of growth at 25 µg/mL [11, 14]: 0 to 25%; inhibition of growth at 50 µg/mL [11, 14]: 0 to 25%
COc1cc(C)c([Se]c2cc(OC)c(OC)cc2C)cc1OC [Verbindung 27, Bis(3,4-dimethoxy-6-methylphenyl)selen] | - | - | - | - | - | - | - | - | + (mind. 75 % Wachstumshemmung im Vergleich zur Kontrolle) | - (weniger als 75 % Wachstumshemmung im Vergleich zur Kontrolle) | + (mind. 75 % Wachstumshemmung im Vergleich zur Kontrolle) | - (weniger als 75 % Wachstumshemmung im Vergleich zur Kontrolle) | - (weniger als 75 % Wachstumshemmung im Vergleich zur Kontrolle) | - (weniger als 75 % Wachstumshemmung im Vergleich zur Kontrolle) | - (key: +++: mehr als 75 % der Sporen nicht gekeimt; ++: zwischen 50 und 75 % der Sporen nicht gekeimt; +: zwischen 25 und 50 % der Sporen nicht gekeimt; -: zwischen 0 und 25 % der Sporen nicht gekeimt) | - (key: +++: mehr als 75 % der Sporen nicht gekeimt; ++: zwischen 50 und 75 % der Sporen nicht gekeimt; +: zwischen 25 und 50 % der Sporen nicht gekeimt; -: zwischen 0 und 25 % der Sporen nicht gekeimt) | - (key: +++: mehr als 75 % der Sporen nicht gekeimt; ++: zwischen 50 und 75 % der Sporen nicht gekeimt; +: zwischen 25 und 50 % der Sporen nicht gekeimt; -: zwischen 0 und 25 % der Sporen nicht gekeimt) | - (key: +++: mehr als 75 % der Sporen nicht gekeimt; ++: zwischen 50 und 75 % der Sporen nicht gekeimt; +: zwischen 25 und 50 % der Sporen nicht gekeimt; -: zwischen 0 und 25 % der Sporen nicht gekeimt) | - (zwischen 0 und 25 % der Sporen nicht gekeimt) | - (zwischen 0 und 25 % der Sporen nicht gekeimt) | Aktivität gegenüber P. infestans ([5]; 25µg/mL): - (zwischen 0 und 25 % der Sporen nicht gekeimt); Aktivität gegenüber P. infestans ([5]; 50µg/mL): - (zwischen 0 und 25 % der Sporen nicht gekeimt); Wirksamkeit gegenüber P. infestans [5]: keine Wirkung; Aktivität gegenüber M. grisea CM ([10]; 5µg/mL): - (zwischen 0 und 25 % der Sporen nicht gekeimt); Aktivität gegenüber M. grisea CM ([10]; 10µg/mL): - (zwischen 0 und 25 % der Sporen nicht gekeimt); Aktivität gegenüber M. grisea CM ([10]; 25µg/mL): + (zwischen 25 und 50 % der Sporen nicht gekeimt); Aktivität gegenüber M. grisea CM ([10]; 50µg/mL): + (zwischen 25 und 50 % der Sporen nicht gekeimt); Aktivität gegenüber M. grisea H2O ([11]; 5µg/mL): - (zwischen 0 und 25 % der Sporen nicht gekeimt); Aktivität gegenüber M. grisea H2O ([11]; 10µg/mL): - (zwischen 0 und 25 % der Sporen nicht gekeimt); Aktivität gegenüber M. grisea H2O ([11]; 25µg/mL): - (zwischen 0 und 25 % der Sporen nicht gekeimt); Aktivität gegenüber M. grisea H2O ([11]; 50µg/mL): + (zwischen 25 und 50 % der Sporen nicht gekeimt)
COc1cc(C)c([Se]c2c(C)cc(OC)c(OC)c2OC)c(OC)c1OC [Verbindung 28, Bis(6-methyl-2,3,4-trimethoxyphenyl)selen] | - | - | - | - | - | - | - | - | - (weniger als 75 % Wachstumshemmung im Vergleich zur Kontrolle) | - (weniger als 75 % Wachstumshemmung im Vergleich zur Kontrolle) | + (mind. 75 % Wachstumshemmung im Vergleich zur Kontrolle) | - (weniger als 75 % Wachstumshemmung im Vergleich zur Kontrolle) | - (weniger als 75 % Wachstumshemmung im Vergleich zur Kontrolle) | - (weniger als 75 % Wachstumshemmung im Vergleich zur Kontrolle) | - (key: +++: mehr als 75 % der Sporen nicht gekeimt; ++: zwischen 50 und 75 % der Sporen nicht gekeimt; +: zwischen 25 und 50 % der Sporen nicht gekeimt; -: zwischen 0 und 25 % der Sporen nicht gekeimt) | - (key: +++: mehr als 75 % der Sporen nicht gekeimt; ++: zwischen 50 und 75 % der Sporen nicht gekeimt; +: zwischen 25 und 50 % der Sporen nicht gekeimt; -: zwischen 0 und 25 % der Sporen nicht gekeimt) | - (key: +++: mehr als 75 % der Sporen nicht gekeimt; ++: zwischen 50 und 75 % der Sporen nicht gekeimt; +: zwischen 25 und 50 % der Sporen nicht gekeimt; -: zwischen 0 und 25 % der Sporen nicht gekeimt) | - (key: +++: mehr als 75 % der Sporen nicht gekeimt; ++: zwischen 50 und 75 % der Sporen nicht gekeimt; +: zwischen 25 und 50 % der Sporen nicht gekeimt; -: zwischen 0 und 25 % der Sporen nicht gekeimt) | - (zwischen 0 und 25 % der Sporen nicht gekeimt) | - (zwischen 0 und 25 % der Sporen nicht gekeimt) | Aktivität gegenüber P. infestans ([5]; 25µg/mL): - (zwischen 0 und 25 % der Sporen nicht gekeimt); Aktivität gegenüber P. infestans ([5]; 50µg/mL): - (zwischen 0 und 25 % der Sporen nicht gekeimt); Wirksamkeit gegenüber P. infestans [5]: keine Wirkung; Aktivität gegenüber M. grisea CM ([10]; 5µg/mL): +++ (mehr als 75 % der Sporen nicht gekeimt); Aktivität gegenüber M. grisea CM ([10]; 10µg/mL): +++ (mehr als 75 % der Sporen nicht gekeimt); Aktivität gegenüber M. grisea CM ([10]; 25µg/mL): +++ (mehr als 75 % der Sporen nicht gekeimt); Aktivität gegenüber M. grisea CM ([10]; 50µg/mL): +++ (mehr als 75 % der Sporen nicht gekeimt); Aktivität gegenüber M. grisea H2O ([11]; 5µg/mL): +++ (mehr als 75 % der Sporen nicht gekeimt); Aktivität gegenüber M. grisea H2O ([11]; 10µg/mL): +++ (mehr als 75 % der Sporen nicht gekeimt); Aktivität gegenüber M. grisea H2O ([11]; 25µg/mL): +++ (mehr als 75 % der Sporen nicht gekeimt); Aktivität gegenüber M. grisea H2O ([11]; 50µg/mL): +++ (mehr als 75 % der Sporen nicht gekeimt)
